Experimental findings from the supplement of paper PMC12137928 are described below.

Where a name gives a salt, the structure may show the parent alone.

This assay deals with HCT116. As to conditions: 72 h. The method in brief:
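Luminescence was read with CellTiter-Glo in HCT116 cells seeded at 250 per well in 1536-well plates. Signals were scaled between vehicle at 0% and positive control at -100%, then pattern-corrected. IC50 and maximal efficacy were obtained by fitting a four-parameter Hill equation.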

For the compound `CC(C)(C)CC(=O)OCC(=O)[C@@]12OC(C)(C)O[C@@H]1C[C@H]1[C@@H]3CCC4=CC(=O)C=C[C@]4(C)[C@@]3(F)[C@@H](O)C[C@@]12C` [Triamcinolone hexacetonide], the IC50 cell viability is > 45.8 µM (ICRF193 0 nM) and > 45.8 µM (ICRF193 200 nM).
Consider `C[C@]12C=CC(=O)C=C1CC[C@H]1[C@@H]3C[C@@H](O)[C@](O)(C(=O)CO)[C@@]3(C)C[C@H](O)[C@@]12F` [Triamcinolone], for which the IC50 cell viability was > 45.8 µM (ICRF193 0 nM) and > 45.8 µM (ICRF193 200 nM).
On to `O=C(Nc1ccc(Br)cc1)c1cc(Br)cc(Br)c1O` [Tribromsalan], for which the IC50 cell viability (ICRF193 0 nM) was > 45.8 µM and the IC50 cell viability (ICRF193 200 nM) was > 45.8 µM.
With `CCCCCCCC(=O)OCC(COC(=O)CCCCCCC)OC(=O)CCCCCCC` [Tricaprylin], the IC50 cell viability was > 45.8 µM (ICRF193 0 nM) and > 45.8 µM (ICRF193 200 nM).
Take `COP(=O)(OC)C(O)C(Cl)(Cl)Cl` (stereo not given) [Trichlorfon]: the IC50 cell viability (ICRF193 0 nM) was > 45.8 µM and the IC50 cell viability (ICRF193 200 nM) was > 45.8 µM.
`NS(=O)(=O)c1cc2c(cc1Cl)NC(C(Cl)Cl)NS2(=O)=O` (stereo not given) [Trichlormethiazide]: the IC50 cell viability is > 45.8 µM (ICRF193 0 nM) and > 45.8 µM (ICRF193 200 nM).
On to `O=C(O)C(Cl)(Cl)Cl` [Trichloroacetic acid], for which the IC50 cell viability (ICRF193 0 nM) was > 45.8 µM and the IC50 cell viability (ICRF193 200 nM) is > 45.8 µM.
Regarding `CC[N+](CC)(CC)CCC(O)(c1ccccc1)C1CCCCC1` (stereo not given) [Tridihexethyl chloride], the IC50 cell viability was > 45.8 µM (ICRF193 0 nM) and > 45.8 µM (ICRF193 200 nM).
Take `OCCN(CCO)CCO` [Triethanolamine]: the IC50 cell viability reads like this: (ICRF193 0 nM) > 45.8 µM; (ICRF193 200 nM) > 45.8 µM.
As for `OCCOCCOCCO` [Triethylene glycol], the IC50 cell viability by setting is: (ICRF193 0 nM) > 45.8 µM; (ICRF193 200 nM) > 45.8 µM.
For the compound `NCCNCCNCCN` [Triethylenetetramine], the IC50 cell viability (ICRF193 0 nM) was > 45.8 µM and the IC50 cell viability (ICRF193 200 nM) is > 45.8 µM.
For `OC(CCN1CCCCC1)(c1ccccc1)C1CCCCC1` (stereo not given) [Trihexyphenidyl hydrochloride], the IC50 cell viability (ICRF193 0 nM) was > 45.8 µM and the IC50 cell viability (ICRF193 200 nM) is > 45.8 µM.
As to `C[C@]12CC[C@H]3[C@@H](CC[C@@]45O[C@@H]4C(O)=C(C#N)C[C@]35C)[C@@H]1CC[C@@H]2O` [Trilostane], the IC50 cell viability (ICRF193 0 nM) was > 45.8 µM and the IC50 cell viability (ICRF193 200 nM) is > 45.8 µM.
As to `CC(CN(C)C)CN1c2ccccc2Sc2ccccc21` (stereo not given) [Trimeprazine tartrate], the IC50 cell viability reads like this: (ICRF193 0 nM) > 45.8 µM; (ICRF193 200 nM) > 45.8 µM.
`COc1ccc(CN2CCNCC2)c(OC)c1OC` [Trimetazidine dihydrochloride]: the IC50 cell viability was > 45.8 µM (ICRF193 0 nM) and > 45.8 µM (ICRF193 200 nM).
Consider `CN1C(=O)OC(C)(C)C1=O` [Trimethadione], for which the IC50 cell viability is > 45.8 µM (ICRF193 0 nM) and > 45.8 µM (ICRF193 200 nM).
As for `COc1cc(C(=O)NCc2ccc(OCCN(C)C)cc2)cc(OC)c1OC` [Trimethobenzamide hydrochloride], the IC50 cell viability (ICRF193 0 nM) was > 45.8 µM and the IC50 cell viability (ICRF193 200 nM) is > 45.8 µM.
For `COc1cc(Cc2cnc(N)nc2N)cc(OC)c1OC` [Trimethoprim], the IC50 cell viability reads like this: (ICRF193 0 nM) > 45.8 µM; (ICRF193 200 nM) > 45.8 µM.
With `COc1cc(CC2NCCc3cc(O)c(O)cc32)cc(OC)c1OC` (stereo not given) [Trimethoquinol], the IC50 cell viability is, setting by setting: (ICRF193 0 nM) > 45.8 µM; (ICRF193 200 nM) > 45.8 µM.
For the compound `CC(CN(C)C)CN1c2ccccc2CCc2ccccc21` (stereo not given) [Trimipramine maleate], the IC50 cell viability runs as follows: (ICRF193 0 nM) > 45.8 µM; (ICRF193 200 nM) > 45.8 µM.
On to `Cc1cc2cc3c(C)cc(=O)oc3c(C)c2o1` [Trioxsalen], for which the IC50 cell viability (ICRF193 0 nM) is > 45.8 µM and the IC50 cell viability (ICRF193 200 nM) is > 45.8 µM.
For `NS(=O)(=O)c1cc(C(=O)NN2C[C@@H]3[C@H]4CC[C@H](C4)[C@@H]3C2)ccc1Cl` [Tripamide], the IC50 cell viability is > 45.8 µM (ICRF193 0 nM) and > 45.8 µM (ICRF193 200 nM).
Turning to `CN(C)CCN(Cc1ccccc1)c1ccccn1` [Tripelennamine citrate], the IC50 cell viability is, setting by setting: (ICRF193 0 nM) > 45.8 µM; (ICRF193 200 nM) > 45.8 µM.
Turning to `Cc1ccc(/C(=C\CN2CCCC2)c2ccccn2)cc1` [Triprolidine], the IC50 cell viability by setting is: (ICRF193 0 nM) > 45.8 µM; (ICRF193 200 nM) > 45.8 µM.
In the case of `CC(C)C[C@H](NC(=O)[C@@H](Cc1c[nH]c2ccccc12)NC(=O)[C@H](Cc1ccc(O)cc1)NC(=O)[C@H](CO)NC(=O)[C@H](Cc1c[nH]c2ccccc12)NC(=O)[C@H](Cc1c[nH]cn1)NC(=O)[C@@H]1CCC(=O)N1)C(=O)N[C@@H](CCCNC(=N)N)C(=O)N1CCC[C@H]1C(=O)NCC(N)=O` [Triptorelin], the IC50 cell viability is, setting by setting: (ICRF193 0 nM) > 45.8 µM; (ICRF193 200 nM) > 45.8 µM.
